Laboratory results published in patent US10645928B2, “Pesticidally active polycyclic derivatives with sulfur containing substituents” (Syngenta Participations AG, priority 2014, dated 2020).

Assays:
Type in all cases: in vivo
[1] = test system: Aedes aegypti (Yellow Fever Mosquito); assay: Example B23: Aedes aegypti, dry deposits in 12 well tissue culture plates, control; conditions: application rate of 200 ppm in ethanol, adult females, after 48 h and/or 24 h
Description: Test solutions, at an application rate of 200 ppm in ethanol, were applied to 12 well tissue culture plates. Once the deposits were dry, five, two to five day old adult female Aedes aegypti were added to each well, and sustained with a 10% sucrose solution in a cotton wool plug. Assessment of knockdown was made one hour after introduction, and mortality was assessed at 24 and 48 hours after introduction.

[2] = test system: Bemisia tabaci (Cotton White Fly); assay: Example B1: Bemisia tabaci, sprayed cotton leaf discs, mortality; conditions: foliar, 144 h, application rate of 200 ppm, adult white flies, 6 days after incubation
Description: Cotton leaf discs were placed on agar in 24-well microtiter plates and sprayed with aqueous test solutions prepared from 10,000 ppm DMSO stock solutions. After drying the leaf discs were infested with adult white flies. The samples were checked for mortality 6 days after incubation.

[3] = test system: Euschistus heros (Neotropical Brown Stink Bug); assay: Example B5: Euschistus heros, sprayed soybean leaves, mortality; conditions: 120 h, application rate of 200 ppm, N2 nymphs, 5 days after infestation
Description: Soybean leaves on agar in 24-well microtiter plates were sprayed with aqueous test solutions prepared from 10,000 ppm DMSO stock solutions. After drying the leaves were infested with N2 nymphs. The samples were assessed for mortality 5 days after infestation.

[4] = test system: Thrips tabaci (Onion Thrips); assay: Example B22: Thrips tabaci, sprayed sunflower leaf discs, mortality; conditions: foliar, 144 h, application rate of 200 ppm, thrips population of mixed ages, 6 days after infestation
Description: Sunflower leaf discs were placed on agar in 24-well microtiter plates and sprayed with aqueous test solutions prepared from 10,000 ppm DMSO stock solutions. After drying the leaf discs were infested with a thrips population of mixed ages. The samples were assessed for mortality 6 days after infestation.

[5] = test system: Diabrotica balteata (Corn Root Worm); assay: Example B3: Diabrotica balteata, sprayed maize sprouts, mortality; conditions: 96 h, application rate of 200 ppm, L2 larvae, 4 days after infestation
Description: Maize sprouts placed onto an agar layer in 24-well microtiter plates were treated with aqueous test solutions prepared from 10,000 ppm DMSO stock solutions by spraying. After drying, the plates were infested with L2 larvae (6 to 10 per well). The samples were assessed for mortality 4 days after infestation.

[6] = test system: Spodoptera littoralis (Egyptian Cotton Leaf Worm); assay: Example B17: Spodoptera littoralis, sprayed cotton leaf discs, mortality, anti-feeding effect and growth inhibition; conditions: foliar, 72 h, application rate of 200 ppm, L1 larvae, 3 days after infestation, read-out: control (at least one of mortality, anti-feedant effect, growth inhibition)
How it was run: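 Cotton leaf discs on agar sprayed with aqueous dilutions of 10,000 ppm DMSO stocks, dried, then infested with five L1 larvae. Mortality, anti-feeding and growth inhibition scored against untreated discs 3 days after infestation. Control recorded when any one category exceeds the untreated sample.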

[7] = test system: Myzus persicae (Green Peach Aphid); assay: Example B8: Myzus persicae, sprayed sunflower leaf discs, mortality; conditions: foliar, 144 h, application rate of 200 ppm, leaf disc spray, aphid population of mixed ages, 6 days after infestation
Description: Sunflower leaf discs were placed onto agar in a 24-well microtiter plate and sprayed with aqueous test solutions prepared from 10,000 ppm DMSO stock solutions. After drying, the leaf discs were infested with an aphid population of mixed ages. The samples were assessed for mortality 6 days after infestation.

[8] = test system: Euschistus heros (Neotropical Brown Stink Bug); assay: Example B6: Euschistus heros, sprayed soybean leaves, mortality and growth inhibition; conditions: 120 h, application rate of 200 ppm, N2 nymphs, 5 days after infestation, read-out: effect in at least one of the two categories (mortality or growth inhibition)
Description: Soybean leaves on agar in 24-well microtiter plates were sprayed with aqueous test solutions prepared from 10,000 ppm DMSO stock solutions. After drying the leaves were infested with N2 nymphs. The samples were assessed for mortality and growth inhibition in comparison to untreated samples 5 days after infestation.

[9] = test system: Spodoptera littoralis (Egyptian Cotton Leaf Worm); assay: Example B18: Spodoptera littoralis, compound in agar absorbed by lettuce roots, mortality, anti-feedant effect and growth inhibition; conditions: 144 h, test rate of 12.5 ppm, uptake by lettuce roots, Spodoptera eggs, 6 days after infestation, read-out: effect in at least one of the three categories (mortality, anti-feeding, or growth inhibition)
How it was run: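 Compound from 10,000 ppm DMSO stock mixed into agar; lettuce seeds grew 7 days, taking compound up via roots into the lid plate. Cut leaves infested with Spodoptera eggs; mortality, anti-feedant effect and growth inhibition scored against untreated samples 6 days after infestation.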

[10] = test system: Plutella xylostella (Diamond Back Moth); assay: Example B12: Plutella xylostella, treated artificial diet, mortality; conditions: 120 h, application rate of 200 ppm, L2 larvae, 5 days after infestation
Description: 24-well microtiter plates with artificial diet were treated with aqueous test solutions prepared from 10,000 ppm DMSO stock solutions by pipetting. After drying, the plates were infested with L2 larvae (10 to 15 per well). The samples were assessed for mortality 5 days after infestation.

[11] = test system: Plutella xylostella (Diamond Back Moth); assay: Example B13: Plutella xylostella, treated artificial diet, mortality and growth inhibition; conditions: 120 h, application rate of 200 ppm, L2 larvae, 5 days after infestation, read-out: effect in at least one of the two categories (mortality or growth inhibition)
Description: 24-well microtiter plates with artificial diet were treated with aqueous test solutions prepared from 10,000 ppm DMSO stock solutions by pipetting. After drying, the plates were infested with L2 larvae (10 to 15 per well). The samples were assessed for mortality and growth inhibition in comparison to untreated samples 5 days after infestation.

[12] = test system: Frankliniella occidentalis (Western Flower Thrips); assay: Example B7: Frankliniella occidentalis, sprayed sunflower leaf discs, mortality; conditions: foliar, 168 h, application rate of 200 ppm, population of mixed ages, 7 days after infestation
Description: Sunflower leaf discs were placed on agar in 24-well microtiter plates and sprayed with aqueous test solutions prepared from 10,000 DMSO stock solutions. After drying the leaf discs were infested with a Frankliniella population of mixed ages. The samples were assessed for mortality 7 days after infestation.

[13] = test system: Plutella xylostella (Diamond Back Moth); assay: Example B10: Plutella xylostella, treated artificial diet, growth inhibition; conditions: 120 h, application rate of 200 ppm, L2 larvae, 5 days after infestation
How it was run: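 Artificial diet treated with aqueous dilutions prepared from 10,000 ppm DMSO stocks, dried, then infested with 10-15 L2 larvae per well. Growth inhibition scored against untreated samples 5 days after infestation.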

CCS(=O)(=O)c1cc(C(C#N)CCBr)cnc1-c1cn2cnc(C(F)(F)F)cc2n1 (stereo not shown) [Compound P13, 4-bromo-2-[5-ethylsulfonyl-6-[7-(trifluoromethyl)imidazo[1,2-c]pyrimidin-2-yl]-3-pyridyl]butanenitrile]
≥ 80%: pest or weed control at 200 ppm [1] | mortality at 200 ppm [2] | mortality at 200 ppm [3] | mortality at 200 ppm [4] | mortality at 200 ppm [5] | percent control (mortality, anti-feedant effect or growth inhibition) at 200 ppm [6] | mortality at 200 ppm [7] | percent effect (mortality or growth inhibition) at 200 ppm [8] | percent effect (mortality, anti-feeding or growth inhibition) at 12.5 ppm [9] | mortality at 200 ppm [10] | percent effect (mortality or growth inhibition) at 200 ppm [11] | mortality at 200 ppm [12] | inhibition at 200 ppm [13]
